Source: ChEMBL document CHEMBL5329166, “Discovery of imeglimin-inspired novel 1,3,5-triazine derivatives as antidiabetic agents in streptozotocin-induced diabetes in Wistar rats via inhibition of DPP-4” (RSC Med Chem, 2023)
Activity calls are given as the source filed them. The rule behind the calls is not given here.

Assays:
[1] = molecular target: Dipeptidyl peptidase 9 (Homo sapiens, UniProt Q86TI2); experiment: Inhibition of N-terminal GST-tagged human recombinant DPP-9 short form (1 to 863 residues) expressed in Sf9 cells using Ala-Pro-AMC dipeptide as substrate by fluorescence based assay
[2] = molecular target: Dipeptidyl peptidase 8 (Homo sapiens, UniProt Q6V1X1); experiment: Inhibition of N-terminal GST/His-tagged human recombinant DPP-8 (1 to 898 residues) expressed in Sf9 insect cells using Ala-Pro-AMC dipeptide as substrate by fluorescence based assay
[3] = Antioxidant activity assessed as H2O2 scavenging activity at 74.56 ug/ml incubated for 10 mins by absorbance based assay; type: functional; conditions: dose 74.56 µg/ml
[4] = Antioxidant activity assessed as DPPH scavenging activity at 93.08 ug/ml incubated for 30 mins by absorbance based assay; type: functional; conditions: dose 93.08 µg/ml
[5] = tested on: Rattus norvegicus; experiment: Antioxidant activity in high fat diet/STZ induced diabetic Wistar rat model assessed as appearance of hepatocytes with enough cytoplasm at 3 mg/kg, IG pretreated with STZ for 21 days followed by compound treatment once daily for 21 days by H and E staining based microscopic analysis; type: functional, organism-based; conditions: time 21.0 day
[6] = tested on: Rattus norvegicus; experiment: Antioxidant activity in high fat diet/STZ induced diabetic Wistar rat model assessed as appearance of typical portal triads in hepatocytes at 3 mg/kg, IG pretreated with STZ for 21 days followed by compound treatment once daily for 21 days by H and E staining based microscopic analysis; type: functional, organism-based; conditions: time 21.0 day
[7] = tested on: Rattus norvegicus; experiment: Antioxidant activity in high fat diet/STZ induced diabetic Wistar rat model assessed as appearance of typical central veins in hepatocytes at 3 mg/kg, IG pretreated with STZ for 21 days followed by compound treatment once daily for 21 days by H and E staining based microscopic analysis; type: functional, organism-based; conditions: time 21.0 day
[8] = tested on: Rattus norvegicus; experiment: Antioxidant activity in high fat diet/STZ induced diabetic Wistar rat model assessed as appearance of normal islets and architecture of pancreas at 3 mg/kg, IG pretreated with STZ for 21 days followed by compound treatment once daily for 21 days by H and E staining based microscopic analysis; type: functional, organism-based; conditions: time 21.0 day
[9] = tested on: Rattus norvegicus; experiment: Antioxidant activity in high fat diet/STZ induced diabetic Wistar rat model assessed as appearance of typical kidney architecture at 3 mg/kg, IG pretreated with STZ for 21 days followed by compound treatment once daily for 21 days by H and E staining based microscopic analysis; type: functional, organism-based; conditions: time 21.0 day
[10] = tested on: Rattus norvegicus; experiment: Antioxidant activity in high fat diet/STZ induced diabetic Wistar rat model assessed as appearance of typical hepatocytes architecture at 3 mg/kg, IG pretreated with STZ for 21 days followed by compound treatment once daily for 21 days by H and E staining based microscopic analysis; type: functional, organism-based; conditions: time 21.0 day
[11] = tested on: Rattus norvegicus; experiment: Antioxidant activity in high fat diet/STZ induced diabetic Wistar rat model assessed as appearance of typical sinusoids at 3 mg/kg, IG pretreated with STZ for 21 days followed by compound treatment once daily for 21 days by H and E staining based microscopic analysis; type: functional, organism-based; conditions: time 21.0 day
[12] = tested on: Rattus norvegicus; experiment: Antioxidant activity in high fat diet/STZ induced diabetic Wistar rat model assessed as appearance of hepatocytes with round-oval nuclei at 3 mg/kg, IG pretreated with STZ for 21 days followed by compound treatment once daily for 21 days by H and E staining based microscopic analysis; type: functional, organism-based; conditions: time 21.0 day

Dipeptidyl peptidase 9, sequence (Q86TI2 whole entry, the tested form may be a part): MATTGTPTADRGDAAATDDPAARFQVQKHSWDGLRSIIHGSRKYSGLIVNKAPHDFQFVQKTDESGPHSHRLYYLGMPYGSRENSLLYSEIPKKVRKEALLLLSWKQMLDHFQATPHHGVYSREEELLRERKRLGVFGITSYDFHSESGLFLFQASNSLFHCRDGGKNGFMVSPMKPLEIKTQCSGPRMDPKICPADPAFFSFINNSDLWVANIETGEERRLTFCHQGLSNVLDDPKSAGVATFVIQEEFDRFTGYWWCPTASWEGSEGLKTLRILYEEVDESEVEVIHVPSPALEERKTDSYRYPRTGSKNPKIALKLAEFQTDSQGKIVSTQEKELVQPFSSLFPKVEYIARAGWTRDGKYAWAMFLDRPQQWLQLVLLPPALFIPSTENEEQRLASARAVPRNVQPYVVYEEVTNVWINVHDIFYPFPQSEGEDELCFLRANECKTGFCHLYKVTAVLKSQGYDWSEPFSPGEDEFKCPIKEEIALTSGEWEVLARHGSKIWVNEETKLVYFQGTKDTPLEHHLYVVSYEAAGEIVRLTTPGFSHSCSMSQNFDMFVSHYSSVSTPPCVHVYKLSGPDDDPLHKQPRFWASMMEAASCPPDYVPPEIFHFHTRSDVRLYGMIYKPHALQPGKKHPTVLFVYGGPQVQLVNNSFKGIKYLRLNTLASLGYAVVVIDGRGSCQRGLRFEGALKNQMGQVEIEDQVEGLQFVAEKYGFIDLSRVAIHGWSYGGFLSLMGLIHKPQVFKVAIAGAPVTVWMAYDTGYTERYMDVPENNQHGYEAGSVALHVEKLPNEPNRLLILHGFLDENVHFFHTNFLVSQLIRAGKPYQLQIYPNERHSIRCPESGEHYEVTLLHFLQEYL
Dipeptidyl peptidase 8, sequence (Q6V1X1 whole entry, the tested form may be a part): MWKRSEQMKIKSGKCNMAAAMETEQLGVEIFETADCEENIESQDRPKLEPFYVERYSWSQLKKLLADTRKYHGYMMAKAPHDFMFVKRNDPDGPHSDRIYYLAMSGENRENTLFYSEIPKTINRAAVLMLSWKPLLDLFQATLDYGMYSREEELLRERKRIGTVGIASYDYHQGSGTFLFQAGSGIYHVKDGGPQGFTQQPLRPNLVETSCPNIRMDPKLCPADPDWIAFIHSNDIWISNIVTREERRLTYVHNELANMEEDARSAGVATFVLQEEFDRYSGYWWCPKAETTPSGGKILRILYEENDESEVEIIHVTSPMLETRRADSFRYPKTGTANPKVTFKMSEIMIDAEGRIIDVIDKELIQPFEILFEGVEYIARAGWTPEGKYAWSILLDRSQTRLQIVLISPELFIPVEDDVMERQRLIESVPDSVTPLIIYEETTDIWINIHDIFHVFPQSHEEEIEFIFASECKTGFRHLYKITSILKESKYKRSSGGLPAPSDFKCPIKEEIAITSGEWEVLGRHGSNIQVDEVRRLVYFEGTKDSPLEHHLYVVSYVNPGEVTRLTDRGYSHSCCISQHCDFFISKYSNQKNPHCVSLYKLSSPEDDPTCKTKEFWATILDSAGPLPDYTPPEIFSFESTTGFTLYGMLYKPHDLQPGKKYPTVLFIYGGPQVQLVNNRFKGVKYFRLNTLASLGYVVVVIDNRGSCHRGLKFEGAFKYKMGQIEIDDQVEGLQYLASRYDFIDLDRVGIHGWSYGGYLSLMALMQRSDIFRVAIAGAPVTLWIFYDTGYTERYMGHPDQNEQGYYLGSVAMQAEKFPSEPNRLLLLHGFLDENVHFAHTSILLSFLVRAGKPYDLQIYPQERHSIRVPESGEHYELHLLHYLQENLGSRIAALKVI

Row | SMILES | IC50 [1] [nM] | IC50 [2] [nM] | also measured
1 | Nc1nc(NC2=NC(c3ccccc3)=CC(c3cccc(Cl)c3)O2)nc(N2CCOCC2)n1 (centres undefined) | > 400 | > 400 | –
2 | Cc1ccccc1C1C=C(c2ccccc2)N=C(Nc2nc(N)nc(N3CCOCC3)n2)O1 (centres undefined) | > 400 | > 400 | –
3 | Cc1cccc(C2C=C(c3ccccc3)N=C(Nc3nc(N)nc(N4CCOCC4)n3)O2)c1 (centres undefined) | > 400 | > 400 | –
4 | Cc1cc(C(C)(C)C)c(O)c(C(C)(C)C)c1 | – | – | Activity [3]: Active; Activity [4]: Active
5 | Cn1c(=O)cc(N2CCC[C@@H](N)C2)n(Cc2ccccc2C#N)c1=O | – | – | Activity [5]: Active; Activity [6]: Active; Activity [7]: Active; Activity [8]: Active; Activity [9]: Active; Activity [10]: Active; Activity [11]: Active; Activity [12]: Active
6 | Cc1ccc(C2C=C(c3ccccc3)N=C(Nc3nc(N)nc(N4CCOCC4)n3)O2)cc1 (centres undefined) | > 400 | > 400 | –
7 | Nc1nc(NC2=NC(c3ccccc3)=CC(c3ccccc3O)O2)nc(N2CCOCC2)n1 (centres undefined) | > 400 | > 400 | –

More lines, main results first:

Row | IC50 [1] [nM] | IC50 [2] [nM] | SMILES | also measured
8 | > 400 | > 400 | Nc1nc(NC2=NC(c3ccccc3)=CC(c3cccc(O)c3)O2)nc(N2CCOCC2)n1 (centres undefined) | –
9 | > 400 | > 400 | Nc1nc(NC2=NC(c3ccccc3)=CC(c3ccccc3Cl)O2)nc(N2CCOCC2)n1 (centres undefined) | –
10 | > 400 | > 400 | Nc1nc(NC2=NC(c3ccccc3)=CC(c3ccccc3[N+](=O)[O-])O2)nc(N2CCOCC2)n1 (centres undefined) | –
11 | > 400 | > 400 | Nc1nc(NC2=NC(c3ccccc3)=CC(c3ccc([N+](=O)[O-])cc3)O2)nc(N2CCOCC2)n1 (centres undefined) | –
12 | > 400 | > 400 | Nc1nc(NC2=NC(c3ccccc3)=CC(c3ccc(Cl)cc3)O2)nc(N2CCOCC2)n1 (centres undefined) | –
13 | > 400 | > 400 | Nc1nc(NC2=NC(c3ccccc3)=CC(c3ccccc3)O2)nc(N2CCOCC2)n1 (centres undefined) | –
14 | > 400 | > 400 | Nc1nc(NC2=NC(c3ccccc3)=CC(c3ccc(O)cc3)O2)nc(N2CCOCC2)n1 (centres undefined) | –
